Like-named read-outs stand apart in the source and are kept apart here.
Assays:
[1] = tested on: cAMP stimulated parietal cells; assay: Isolated parietal cell assay, inhibition of 14C-aminopyrine accumulation, dibutyryl cAMP stimulated; type: cell-based, rabbit; conditions: Example 48, 37° C., read-out: IC50 vcAMP (inhibition of 14C-AP accumulation in cAMP stimulated parietal cells)
Method: (§1) Isolated Parietal Cell Assay
(§2) The isolated parietal cell assay was conducted using the procedures of Batzri, S. et al., Biochemica et Biophysica Acta 508, 328 (1978) and Soll, A. H. Am. J. Physiol. 238, G366 (1980). Basically, parietal cells were isolated from the fundic mucosa of rabbit stomachs by a four-stage collagenase digestion process. The supernatant fractions from the last two stages of this process contain the individual parietal cells. This cell suspension was centrifuged and reconstituted in a modified Hank's buffer to contain 1-2×10^6 cells/ml. […] This accumulation was stimulated by histamine and was blocked by H2 antagonists. The cells were incubated with 0.4-0.5×10^6 cpm ^14 C-AP, with various concentrations of histamine as a stimulant, 1×10^-5 M isobutylmethylxanthine, and the test compound added in a 20 μl volume of buffer or DMSO. The flasks were incubated in a shaking water bath at 37° C. for 20 minutes. Two aliquots were then taken from each flask and cell pellets were collected by centrifugation. The pellets were solubilized with Protosol (New England Nuclear) and radioactivity determined by liquid scintillation spectrometry. Data is presented as the IC50 vhist, the concentration of compound required to inhibit ^14 C-AP accumulation in the histamine stimulated parietal cell by 50%. When dibutyryl cAMP was used to stimulate the cells instead of histamine, a similar inhibition of ^14 C-AP accumulation was measured and the data are presented as the IC50 vcAMP, the concentration required to inhibit ^14 C-AP accumulation in the cAMP stimulated parietal cells by 50%.

[2] = biological target: T1, parietal cell H^+ K^+ ATPase (Oryctolagus cuniculus, UniProt P27112); assay: Inhibition of parietal cell H+ K+ ATPase; type: biochemical, New Zealand white rabbits; conditions: Example 49; for IC50: given as "50% @ x μM", read-out: % Inhibition at Concentration (H+ K+ ATPase): concentration given for 50% inhibition; for inhibition at 100 µM: @ 10^-4 M, read-out: % Inhibition at Concentration (H+ K+ ATPase)
T1 construct: determined in fundic mucosa from New Zealand white rabbits which were homogenized; from tissue; host or cells: fundic mucosa of New Zealand white rabbits, homogenized; membrane protein
Method: Inhibition of Parietal Cell H^+ K^+ ATPase
The activity was measured in a 1 ml incubation volume containing 50 mM Tris pH 7.4, 2 mM MgCl2, 2 mM Na2 ATP, with or without 20 mM KCl and vehicle control (dimethylsulfoxide) or test compound added in a 0.02 ml volume. Typically, 20-50 μg membrane protein was added and the tubes were preincubated with test compound for 10 minutes at 37° C. Substrate, Na2 ATP, was then added and the tubes were incubated for another 15 minutes at 37° C. The reaction was stopped by the addition of 1 ml 14% trichloroacetic acid and the samples were centrifuged at 2,000 xg for 10 minutes. The amount of inorganic phosphate present in an aliquot of supernatant was determined. H^+ K^+ ATPase activity was determined after correcting for the basal (Mg^++ only) enzyme activity present in the membrane preparation.

[3] = tested on: histamine stimulated parietal cell; assay: Isolated parietal cell assay, inhibition of 14C-aminopyrine accumulation, histamine stimulated; type: cell-based, rabbit; conditions: Example 48, 37° C., read-out: IC50 vhist (inhibition of 14C-AP accumulation in histamine stimulated parietal cell)
Method: as §1, §2

acid output = assay: Gastric secretion, acid output in pylorus ligated rats; type: in vivo, male Charles River Sprague Dawley derived rats; conditions: Example 50, i.d. or s.c., four hours after pylorus ligation, compared to control; for response vs control in vivo at 40 mg/kg: @ 40 mpK
Method: The inhibitory activity of the compounds on acid output was tested using pylorus ligation in a modification of the procedure of Shay, H. et al., Gastroenterology 26, 906 (1954). Basically, male Charles River Sprague Dawley derived rats weighing 150-300 grams were deprived of food but not water for 18-24 hours prior to use. Water was withheld during the experiment, however. The rats were weighed, anesthetized with ether and the pylorus ligated according to the method of Shay et al., supra. Treatment or vehicle control was then administered intraduodenally (i.d.) or subcutaneously (s.c.). Rats were housed two/cage and sacrificed with CO2 four hours after ligation. The stomachs were removed, rinsed, and contents emptied into a graduated centrifuge tube. The tubes were centrifuged, the volume of gastric juice recorded, and any samples obviously contaminated by feces, food or blood were eliminated. A 1 ml aliquot of gastric juice was titrated with 0.1N NaOH to a pH of 7.0-7.4. The volume of gastric juice secreted, the acid concentration, and the product of the volume times the concentration, i.e., the total amount of acid secreted, were measured.

[4] = Rattus norvegicus, 4 h, @ 20 mpK, read-out: % Acid Secreted at mpK
[5] = Rattus norvegicus, 4 h, read-out: % Acid Secreted at mpK

T1 sequence (P27112 2-1035 limits assumed): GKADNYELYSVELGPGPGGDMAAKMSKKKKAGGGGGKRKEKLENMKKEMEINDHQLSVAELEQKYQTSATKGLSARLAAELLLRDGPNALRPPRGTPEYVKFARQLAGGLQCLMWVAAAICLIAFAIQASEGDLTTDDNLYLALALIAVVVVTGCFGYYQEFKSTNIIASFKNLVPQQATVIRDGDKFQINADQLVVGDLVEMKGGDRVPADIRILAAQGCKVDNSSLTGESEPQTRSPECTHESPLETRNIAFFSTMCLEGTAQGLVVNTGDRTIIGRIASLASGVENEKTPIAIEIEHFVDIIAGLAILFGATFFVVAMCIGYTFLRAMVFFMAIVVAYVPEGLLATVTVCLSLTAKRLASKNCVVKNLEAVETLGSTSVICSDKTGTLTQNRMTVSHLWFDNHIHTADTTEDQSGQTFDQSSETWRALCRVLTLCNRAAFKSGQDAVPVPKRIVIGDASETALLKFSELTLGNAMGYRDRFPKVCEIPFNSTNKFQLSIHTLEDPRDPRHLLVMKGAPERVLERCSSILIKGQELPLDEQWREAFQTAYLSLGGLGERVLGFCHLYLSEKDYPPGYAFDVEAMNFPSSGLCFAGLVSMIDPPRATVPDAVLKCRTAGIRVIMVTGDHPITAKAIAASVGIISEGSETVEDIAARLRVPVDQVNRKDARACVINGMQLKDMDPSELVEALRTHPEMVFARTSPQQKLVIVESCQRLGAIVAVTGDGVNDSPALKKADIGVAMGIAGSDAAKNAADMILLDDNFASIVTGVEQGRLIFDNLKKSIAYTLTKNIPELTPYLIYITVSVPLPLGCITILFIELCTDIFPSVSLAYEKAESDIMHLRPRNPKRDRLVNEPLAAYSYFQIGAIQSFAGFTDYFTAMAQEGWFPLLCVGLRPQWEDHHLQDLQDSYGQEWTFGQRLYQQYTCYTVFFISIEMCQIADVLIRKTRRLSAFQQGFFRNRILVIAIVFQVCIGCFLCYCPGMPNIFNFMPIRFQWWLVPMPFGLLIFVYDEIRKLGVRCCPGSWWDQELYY
T1 sequence (P18597 whole entry partner): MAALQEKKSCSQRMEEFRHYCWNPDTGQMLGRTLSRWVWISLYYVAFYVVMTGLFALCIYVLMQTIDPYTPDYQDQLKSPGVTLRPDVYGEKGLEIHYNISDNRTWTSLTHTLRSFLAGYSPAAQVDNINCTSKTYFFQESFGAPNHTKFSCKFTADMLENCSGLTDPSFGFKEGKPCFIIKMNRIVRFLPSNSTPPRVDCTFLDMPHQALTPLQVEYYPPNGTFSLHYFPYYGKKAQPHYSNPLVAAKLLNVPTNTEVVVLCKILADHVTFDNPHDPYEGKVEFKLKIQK

## CCCN(CCC)CCCCOc1cccc(/C=C/c2nc3ccccc3o2)c1 [Example 5]
[1]; Oryctolagus cuniculus, 20 min
  IC50: 310 nM
[2]
  IC50: 14 µM
[3]; Oryctolagus cuniculus, 20 min
  IC50: 120 nM
Acid output; @ 10 mpK
  % Acid Secreted at mpK: 25%
Acid output; [4]
  response vs control in vivo at 20 mg/kg: 74%

## C(=C\c1nc2ccccc2s1)/c1cccc(OCCCCn2ccnc2)c1 [Example 27]
[1]; Oryctolagus cuniculus, 20 min
  IC50: 210 nM
[2]
  IC50: 4.7 µM
[3]; Oryctolagus cuniculus, 20 min
  IC50: 110 nM
Acid output; [4]
  response vs control in vivo at 20 mg/kg: 42%
Acid output; [5]
  response vs control in vivo at 40 mg/kg: 83%

## CCCCN(CCCC)CCCOc1ccc(/C=C/c2nc3cc(C)ccc3o2)cc1 [Example 15, (E)-2-[2-(4-Dibutylaminopropoxyphenyl)ethenyl]-5-methylbenzoxazole]
[1]; Oryctolagus cuniculus, 20 min
  IC50: 340 nM
[2]
  IC50: 27 µM
[3]; Oryctolagus cuniculus, 20 min
  IC50: 260 nM
Acid output; [5]
  response vs control in vivo at 40 mg/kg: 88%

## C(=C\c1nc2ccccc2o1)/c1ccc(OCCCCN2CCCC2)cc1 [Example 23, (E)-2-[2-(4-Pyrrolinobutoxyphenyl)ethenyl]benzoxazole]
[1]; Oryctolagus cuniculus, 20 min
  IC50: 240 nM
[2]
  IC50: 84 µM
[3]; Oryctolagus cuniculus, 20 min
  IC50: 170 nM
Acid output; [5]
  response vs control in vivo at 40 mg/kg: 24%

## CCCCN(CCCC)CCOc1ccc(/C=C/c2nc3ccccc3s2)cc1 [Example 37, (E)-2-[2-(4-Dibutylaminoethoxyphenyl)ethenyl]benzothiazole]
[1]; Oryctolagus cuniculus, 20 min
  IC50: 600 nM
[2]
  inhibition at 100 µM: 43%
[3]; Oryctolagus cuniculus, 20 min
  IC50: 430 nM
Acid output; [4]
  response vs control in vivo at 20 mg/kg: 14%

## CCCN(CCC)CCCOc1cccc(/C=C/c2nc3ccccc3o2)c1 [Example 3, (E)-2-[2-(3-Dipropylaminopropoxyphenyl)ethyenyl]benzoxazole]
[1]; Oryctolagus cuniculus, 20 min
  IC50: 240 nM
[2]
  IC50: 29 µM
[3]; Oryctolagus cuniculus, 20 min
  IC50: 200 nM
Acid output; [4]
  response vs control in vivo at 20 mg/kg: 49%

## (E)-2-[2-[4-(3-Methylbenzylaminopropoxy)phenyl]ethenyl]benzoxazole [Example 13]
[1]; 20 minutes
  IC50: 1400 nM
[2]
  IC50: 66 µM
[3]; 20 minutes
  IC50: 410 nM
Acid output; @ 20 mpK
  % Acid Secreted at mpK: 34%

## C(=C\c1nc2ccccc2o1)/c1cccc(OCCCCn2ccnc2)c1 [Example 6]
[1]; Oryctolagus cuniculus, 20 min
  IC50: 230 nM
[2]
  IC50: 13 µM
[3]; Oryctolagus cuniculus, 20 min
  IC50: 280 nM
Acid output; [4]
  response vs control in vivo at 20 mg/kg: 45%

## CCCN(CCC)CCCCOc1cccc(/C=C/c2nc3ccccc3s2)c1 [Example 26, (E)-2-[2-(3-Dipropylaminobutoxyphenyl)ethenyl]benzothiazole]
[1]; Oryctolagus cuniculus, 20 min
  IC50: 180 nM
[2]
  IC50: 19 µM
[3]; Oryctolagus cuniculus, 20 min
  IC50: 90 nM
Acid output; [4]
  response vs control in vivo at 20 mg/kg: 42%
Acid output; [5]
  response vs control in vivo at 40 mg/kg: 80%

## CCCCN(CCCC)CCCOc1ccc(/C=C/c2nc3cc(C)ccc3s2)cc1 [Example 34, (E)-2-[2-(4-Dibutylaminopropoxyphenyl)ethenyl]-5-methylbenzothiazole]
[1]; Oryctolagus cuniculus, 20 min
  IC50: 530 nM
[2]
  inhibition at 100 µM: 52%
[3]; Oryctolagus cuniculus, 20 min
  IC50: 290 nM
Acid output; [4]
  response vs control in vivo at 20 mg/kg: 14%

## CCCN(CCC)CCCOc1c(C)cc(/C=C/c2nc3ccccc3o2)cc1C [Example 47]
[1]; Oryctolagus cuniculus, 20 min
  IC50: 100 nM
[2]
  IC50: 15 µM
[3]; Oryctolagus cuniculus, 20 min
  IC50: 140 nM
Acid output; [4]
  response vs control in vivo at 20 mg/kg: 90%

## CCCCN(CCCC)CCCOc1ccc(/C=C/c2nc3ccc(OC)cc3s2)cc1 [Example 35, (E)-2-[2-(4-Dibutylaminopropoxyphenyl)ethenyl]-6-methoxybenzothiazole]
[1]; Oryctolagus cuniculus, 20 min
  IC50: 460 nM
[2]
  IC50: 60 µM
[3]; Oryctolagus cuniculus, 20 min
  IC50: 260 nM
Acid output; [4]
  response vs control in vivo at 20 mg/kg: 31%

## CCCN(CCC)CCCCOc1ccc(/C=C/c2nc3ccccc3o2)cc1 [Example 20]
[1]; Oryctolagus cuniculus, 20 min
  IC50: 110 nM
[2]
  IC50: 21 µM
[3]; Oryctolagus cuniculus, 20 min
  IC50: 390 nM
Acid output; @ 10 mpK
  % Acid Secreted at mpK: 59%
Acid output; [4]
  response vs control in vivo at 20 mg/kg: 90%

## CCCCN(CCCC)CCCOc1cccc(/C=C/c2nc3ccccc3o2)c1 [Example 1]
[1]; Oryctolagus cuniculus, 20 min
  IC50: 140 nM
[2]
  inhibition at 100 µM: 49%
[3]; Oryctolagus cuniculus, 20 min
  IC50: 270 nM
Acid output; @ 10 mpK
  % Acid Secreted at mpK: 52%
Acid output; Rattus norvegicus, 4 h, @ 5 mpK, read-out: % Acid Secreted at mpK
  response vs control in vivo at 5 mg/kg: 44%
Acid output; [4]
  response vs control in vivo at 20 mg/kg: 78%

## CCCCN(CCCC)CCCOc1ccc(/C=C/c2nc3ccccc3s2)cc1 [Example 28, (E)-2-[2-(4-Dibutylaminopropoxyphenyl)ethenyl]benzothiazole]
[1]; Oryctolagus cuniculus, 20 min
  IC50: 450 nM
[2]
  inhibition at 100 µM: 46%
[3]; Oryctolagus cuniculus, 20 min
  IC50: 21000 nM
Acid output; @ 10 mpK
  % Acid Secreted at mpK: 25%
Acid output; [4]
  response vs control in vivo at 20 mg/kg: 49%

## C(=C\c1nc2ccccc2o1)/c1ccc(OCCCCn2ccnc2)cc1 [Example 21]
[1]; Oryctolagus cuniculus, 20 min
  IC50: 330 nM
[2]
  IC50: 30 µM
[3]; Oryctolagus cuniculus, 20 min
  IC50: 270 nM
Acid output; [4]
  response vs control in vivo at 20 mg/kg: 14%

## C(=C\c1nc2ccccc2s1)/c1ccc(OCCn2ccnc2)cc1 [Example 39]
[1]; Oryctolagus cuniculus, 20 min
  IC50: 460 nM
[2]
  inhibition at 100 µM: 19%
[3]; Oryctolagus cuniculus, 20 min
  IC50: 390 nM
Acid output; [5]
  response vs control in vivo at 40 mg/kg: 32%

## CCCCN(CCCC)CCCOc1ccc(/C=C/c2nc3ccccc3o2)cc1 [Example 8, (E)-2-[2-(4-Dibutylaminopropoxyphenyl)ethenyl]benzoxazole]
[1]; Oryctolagus cuniculus, 20 min
  IC50: 150 nM
[2]
  inhibition at 100 µM: 17%
[3]; Oryctolagus cuniculus, 20 min
  IC50: 150 nM
Acid output; @ 10 mpK
  % Acid Secreted at mpK: 44%
Acid output; [5]
  response vs control in vivo at 40 mg/kg: 96%

## CCCN(CCC)CCCCOc1ccc(/C=C/c2nc3ccccc3s2)cc1 [Example 38]
[1]; Oryctolagus cuniculus, 20 min
  IC50: 120 nM
[2]
  IC50: 21 µM
[3]; Oryctolagus cuniculus, 20 min
  IC50: 30 nM
Acid output; [5]
  response vs control in vivo at 40 mg/kg: 93%
